Assay results reported in patent US5516782A, “New meso-azacyclic aromatic acid amides and esters as novel serotonergic agents” (G. D. Searle & Co., priority 1995, dated 1996).

What was measured:
[1] = molecular target: 5-HT4 receptor (Rattus norvegicus, UniProt Q62758); assay: cell-based; settings: rat esophagus tunica muscularis mucosae contracted with carbachol (3 μM); tissues from 5 rats; 37° C.; read-out: EC50 values for agonists at this 5-HT4 receptor
Description: Agonist activity was determined utilizing relaxation of carbachol-contracted rat tunica muscularis mucosae. One 2 cm segment of intrathoracic esophagus proximal to the diaphragm was removed from male rats, weighing approximately 300 gm, and the outer muscle layers removed. The inner tunica muscularis mucosa was mounted under 0.2-0.3 g of tension in a tissue bath containing oxygenated Tyrode's solution at 37° C. […] Following a 30 min equilibrium period, tissues were isometrically contracted with carbachol (3 μM) to obtain a tonic contraction. A stable plateau was obtained within 20 min when test compound was added cumulatively to relax the muscle strip. EC50 values were obtained for each agonist in tissues from 5 rats.

[2] = molecular target: T1, 5-HT3 receptor (Rattus norvegicus, UniProt P35563); assay: Serotonin (5-HT3) radioligand receptor binding assay ([3H]-GR65630, rat brain cortex membranes)
T1 construct: Brain cortices are obtained from male rats and a membrane fraction prepared by standard techniques; from tissue; host or cells: rat brain cortex membranes
T1 sequence (P35563 24-483): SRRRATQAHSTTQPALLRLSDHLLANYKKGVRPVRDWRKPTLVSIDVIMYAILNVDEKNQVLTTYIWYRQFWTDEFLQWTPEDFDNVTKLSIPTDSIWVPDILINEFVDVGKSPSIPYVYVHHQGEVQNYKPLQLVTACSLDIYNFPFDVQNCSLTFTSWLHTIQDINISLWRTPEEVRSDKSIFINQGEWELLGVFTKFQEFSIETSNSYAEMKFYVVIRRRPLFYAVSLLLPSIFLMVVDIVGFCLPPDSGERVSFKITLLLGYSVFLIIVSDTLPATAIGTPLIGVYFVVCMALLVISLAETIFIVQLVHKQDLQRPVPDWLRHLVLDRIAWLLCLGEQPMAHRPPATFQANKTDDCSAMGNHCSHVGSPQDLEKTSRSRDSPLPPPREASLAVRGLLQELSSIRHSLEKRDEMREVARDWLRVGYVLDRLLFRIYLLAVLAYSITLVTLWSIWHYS
Description: 5-HT3 antagonism can be determined by the radioligand receptor binding assay as described herein and in the in vivo Bezold-Jarisch reflex procedure.
GR65630 binds to the 5-HT3 receptor. Brain cortices are obtained from male rats and a membrane fraction prepared by standard techniques. 0.04 mg of membrane prep is incubated with 0.2 nM [^3 H]-GR656630 for 60 minutes at 22° C. […] Membranes are filtered and washed 3 times and the filters are counted to determine [3H]-GR65630 specifically bound.*
Kilpatrick G. J., Jones B. J. and Tyers M. B. Identification and distribution of 5-HT3 receptors in rat brain using radioligand binding. Nature, 330: 746-748, 1987.

Chain of 5-HT4 receptor (Q62758 whole entry): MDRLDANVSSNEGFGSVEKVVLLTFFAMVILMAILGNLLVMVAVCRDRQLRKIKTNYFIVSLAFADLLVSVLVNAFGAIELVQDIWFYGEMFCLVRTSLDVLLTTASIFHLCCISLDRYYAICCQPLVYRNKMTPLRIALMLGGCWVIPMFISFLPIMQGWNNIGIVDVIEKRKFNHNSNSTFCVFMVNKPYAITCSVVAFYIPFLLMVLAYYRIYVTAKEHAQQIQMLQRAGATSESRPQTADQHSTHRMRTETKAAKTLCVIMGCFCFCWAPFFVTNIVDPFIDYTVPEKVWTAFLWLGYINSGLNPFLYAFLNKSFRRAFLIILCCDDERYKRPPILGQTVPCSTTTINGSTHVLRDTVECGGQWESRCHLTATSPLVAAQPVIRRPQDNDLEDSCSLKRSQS

Row | EC50 [1] [nM] | Structure (SMILES) | also measured
1 | 422 | COc1cc(N)c(Cl)cc1C(=O)NCC12CCCN1CCC2 [Example 1, 4-amino-5-chloro-2-methoxy-N-(tetrahydro-1H-pyrrolizin-7a (5H) -ylmethyl)benzamide] | –
2 | – | COc1ccc2[nH]cc(C3=CCNCC3)c2c1 [RU24969] | Ki [2]: 1.85 nM
3 | – | Cc1nc[nH]c1CCC(=O)c1cn(C)c2ccccc12 [GR65630] | % Specific Binding ([2]; radioligand, non-specific binding estimated in the presence of 1 uM ICS 205-930): 70%
4 | 216 | COc1cc(N)c(Cl)cc1C(=O)NCC12CC3CN(CC3C1)C2 [Example 9, 4-amino-5-chloro-N-[(hexahydro-2,5β-methano-1H-3aR,3aα,6aα-cyclopenta[c]pyrrol-5-yl)methyl]-2-methoxybenzamide] | –
